Patent US20230013669A1, “Antibacterial Treatment Using a Cannabinoid and an Active Agent” (priority 2019, published 2023)
Where “and” joins values, the source holds several entries; their conditions need not be identical. Identical values can stand only once. Like-named read-outs stand apart in the source and are kept apart here.

System: Acinetobacter baumannii ATCC 19606 (GN_034)
Assay: Synergy of cannabidiol with cell-wall disrupting agent (CBD MIC in combination, FICI)
Assay type: cell-based
Conditions: for MIC: Acinetobacter baumannii
Method: The compounds were stored short term at 4° C.
Analysis was performed using Microsoft Excel.

How did the FICI range (Acinetobacter baumannii ATCC 19606, CBD with FADDI-287, MIC table (Table 95)) turn out when `C=C(C)C1CCC(C)=CC1c1c(O)cc(CCCCC)cc1O` (centres unmarked) [Cannabidiol, 2-[3-methyl-6-(1-methylethenyl)-2-cyclohexen-1-yl]-5-pentyl-1,3-benzenediol] was run?
The FICI range was 0.25-8.

What about the FICI range (Acinetobacter baumannii ATCC 19606, CBD with FADDI-287, Synergy table (Table 97)) of the same molecule?
The FICI range was 0.25-8^.

And the FICI range (Acinetobacter baumannii ATCC 19606, CBD with MCC_8980, MIC table (Table 99))?
Its FICI range is 0.06-1.02.

What about the FICI range (Acinetobacter baumannii ATCC 19606, CBD with MCC_8980, Synergy table (Table 101), listed as CBD) of the same molecule?
The FICI range was 0.06-0.25 and 0.06-0.26.

And the FICI range (Acinetobacter baumannii ATCC 19606, CBD with Spero SPR206, Synergy table, listed as CBD)?
The FICI range was 0.25-0.5 and 0.25.

And the “CBD MIC with MCC_8980” value (Acinetobacter baumannii ATCC 19606, MCC_8980 at 8 μg/mL, listed as CBD)?
Its value is 4 µg/mL.

What about the “CBD MIC with MCC_8980” value (Acinetobacter baumannii ATCC 19606, MCC_8980 at 16 μg/mL, listed as CBD) of the same molecule?
Its value is 2 µg/mL.

What about the FICI (Acinetobacter baumannii ATCC 19606, cannabidiol with FADDI-287 at 0.25 μg/mL, calculated using MIC of 256 μg/mL for cannabidiol) of the same molecule?
Its FICI is 0.5001.

What about the FICI (Acinetobacter baumannii ATCC 19606, cannabidiol with FADDI-287 at 0.5 μg/mL, calculated using MIC of 256 μg/mL for cannabidiol) of the same molecule?
Its FICI is 1.

What about the FICI (Acinetobacter baumannii ATCC 19606, cannabidiol with FADDI-287 at 1 μg/mL, calculated using MIC of 256 μg/mL for cannabidiol) of the same molecule?
The FICI was 2.

What about the FICI (Acinetobacter baumannii ATCC 19606, cannabidiol with FADDI-287 at 2 μg/mL, calculated using MIC of 256 μg/mL for cannabidiol) of the same molecule?
The FICI was 4.

And the FICI (Acinetobacter baumannii ATCC 19606, cannabidiol with FADDI-287 at 4 μg/mL, calculated using MIC of 256 μg/mL for cannabidiol)?
Its FICI is 8.

And the FICI (Acinetobacter baumannii ATCC 19606, cannabidiol with MCC_8980 at 1 μg/mL, calculated using MIC of 256 μg/mL for cannabidiol)?
The FICI was 1.016.

And the FICI (Acinetobacter baumannii ATCC 19606, cannabidiol with MCC_8980 at 2 μg/mL, calculated using MIC of 256 μg/mL for cannabidiol)?
The FICI was 0.0625.

What about the FICI (Acinetobacter baumannii ATCC 19606, cannabidiol with MCC_8980 at 4 μg/mL, calculated using MIC of 256 μg/mL for cannabidiol) of the same molecule?
The FICI was 0.09375.

And the FICI (Acinetobacter baumannii ATCC 19606, cannabidiol with MCC_8980 at 8 μg/mL, calculated using MIC of 256 μg/mL for cannabidiol)?
Its FICI is 0.1328 and 0.1406.

What about the FICI (Acinetobacter baumannii ATCC 19606, cannabidiol with MCC_8980 at 16 μg/mL, calculated using MIC of 256 μg/mL for cannabidiol) of the same molecule?
Its FICI is 0.2578.

What about the FICI (Acinetobacter baumannii ATCC 19606, cannabidiol with SPR741 at 1 μg/mL, calculated using MIC of 256 μg/mL for cannabidiol) of the same molecule?
The FICI was 1.016.

And the FICI (Acinetobacter baumannii ATCC 19606, cannabidiol with SPR741 at 2 μg/mL, calculated using MIC of 256 μg/mL for cannabidiol)?
The FICI was 1.031.

And the FICI (Acinetobacter baumannii ATCC 19606, cannabidiol with SPR741 at 2 μg/mL, calculated using MIC of 256 μg/mL for cannabidiol, listed as cannabidiol)?
Its FICI is 1.016.

And the MIC (ATCC19606, Acinetobacter baumannii ATCC 19606, FADDI-287 at 0.25 μg/mL, read-out: CBD MIC with FADDI-287)?
Its MIC is 0.015 µg/mL.

And the MIC (ATCC19606, Acinetobacter baumannii ATCC 19606, FADDI-287 at 0.5 μg/mL, read-out: CBD MIC with FADDI-287)?
The MIC was 0.001 µg/mL.

What about the MIC (ATCC19606, Acinetobacter baumannii ATCC 19606, FADDI-287 at 1 μg/mL, read-out: CBD MIC with FADDI-287) of the same molecule?
The MIC was 0.001 µg/mL.

What about the MIC (ATCC19606, Acinetobacter baumannii ATCC 19606, FADDI-287 at 2 μg/mL, read-out: CBD MIC with FADDI-287) of the same molecule?
The MIC was 0.001 µg/mL.

What about the MIC (ATCC19606, Acinetobacter baumannii ATCC 19606, FADDI-287 at 4 μg/mL, read-out: CBD MIC with FADDI-287) of the same molecule?
Its MIC is 0.001 µg/mL.

What about the MIC (ATCC19606, Acinetobacter baumannii ATCC 19606, MCC_8980 at 2 μg/mL, read-out: CBD MIC with MCC_8980) of the same molecule?
The MIC was 8 µg/mL.

What about the MIC (ATCC19606, Acinetobacter baumannii ATCC 19606, MCC_8980 at 4 μg/mL, read-out: CBD MIC with MCC_8980) of the same molecule?
The MIC was 8 µg/mL.

What about the MIC (ATCC19606, Acinetobacter baumannii ATCC 19606, MCC_8980 at 8 μg/mL, read-out: CBD MIC with MCC_8980) of the same molecule?
Its MIC is 2 µg/mL.

And the MIC (ATCC19606, Acinetobacter baumannii ATCC 19606, MCC_8980 at 16 μg/mL, read-out: CBD MIC with MCC_8980)?
The MIC was 1 µg/mL.

What about the MIC (ATCC19606, Acinetobacter baumannii ATCC 19606, Spero SPR206 at 2 μg/mL, read-out: CBD MIC with Spero SPR206) of the same molecule?
Its MIC is 0.001 µg/mL.

What about the MIC (ATCC19606, Acinetobacter baumannii ATCC 19606, Spero SPR206 at 4 μg/mL, read-out: CBD MIC with Spero SPR206) of the same molecule?
Its MIC is 0.001 µg/mL.

And the MIC (ATCC19606, MCC_6442 at 1 μg/mL, Acinetobacter baumannii ATCC 19606, read-out: CBD MIC with MCC_6442)?
The MIC was 16 µg/mL.

What about the MIC (ATCC19606, MCC_6442 at 2 μg/mL, Acinetobacter baumannii ATCC 19606, read-out: CBD MIC with MCC_6442) of the same molecule?
The MIC was 1 µg/mL.

What about the MIC (ATCC19606, MCC_6442 at 4 μg/mL, Acinetobacter baumannii ATCC 19606, read-out: CBD MIC with MCC_6442) of the same molecule?
Its MIC is 0.5 µg/mL.

What about the MIC (ATCC19606, Octapeptin C4 at 2 μg/mL, read-out: CBD MIC with Octapeptin C4) of the same molecule?
The MIC was 8 µg/mL.

And the MIC (ATCC19606, Octapeptin C4 at 4 μg/mL, read-out: CBD MIC with Octapeptin C4)?
The MIC was 2 µg/mL.

What about the MIC (ATCC19606, Spero SPR206 at 0.25 μg/mL, 1st of 3 experiments, read-out: CBD MIC with Spero SPR206) of the same molecule?
Its MIC is 0.001 µg/mL.

And the MIC (ATCC19606, Spero SPR206 at 0.25 μg/mL, 3rd of 3 experiments, read-out: CBD MIC with Spero SPR206)?
Its MIC is greater than 256 µg/mL.

And the MIC (ATCC19606, Spero SPR206 at 0.5 μg/mL, 1st of 3 experiments, read-out: CBD MIC with Spero SPR206)?
Its MIC is 0.001 µg/mL.

What about the MIC (ATCC19606, Spero SPR206 at 0.5 μg/mL, 3rd of 3 experiments, read-out: CBD MIC with Spero SPR206) of the same molecule?
The MIC was greater than 256 µg/mL.

And the MIC (ATCC19606, Spero SPR206 at 1 μg/mL, 1st of 3 experiments, read-out: CBD MIC with Spero SPR206)?
The MIC was 0.001 µg/mL.

And the MIC (ATCC19606, Spero SPR206 at 1 μg/mL, 3rd of 3 experiments, read-out: CBD MIC with Spero SPR206)?
The MIC was 1 µg/mL.

What about the MIC (ATCC19606, Spero SPR206 at 2 μg/mL, 1st of 3 experiments, read-out: CBD MIC with Spero SPR206) of the same molecule?
Its MIC is 0.001 µg/mL.

And the MIC (ATCC19606, Spero SPR206 at 2 μg/mL, 3rd of 3 experiments, read-out: CBD MIC with Spero SPR206)?
The MIC was 0.001 µg/mL.

What about the MIC (ATCC19606, Spero SPR206 at 4 μg/mL, 1st of 3 experiments, read-out: CBD MIC with Spero SPR206) of the same molecule?
Its MIC is 0.001 µg/mL.

What about the MIC (ATCC19606, Spero SPR206 at 4 μg/mL, 3rd of 3 experiments, read-out: CBD MIC with Spero SPR206) of the same molecule?
Its MIC is 0.001 µg/mL.

What about the “CBD MIC with Aztreonam” value (Aztreonam at 4 μg/mL) of the same molecule?
The value was 32 µg/mL.

What about the “CBD MIC with Aztreonam” value (Aztreonam at 8 μg/mL) of the same molecule?
Its value is 32 µg/mL.

And the “CBD MIC with Aztreonam” value (Aztreonam at 16 μg/mL)?
The value was 0.001 µg/mL.

What about the FICI (CBD with Aztreonam at 0.5 μg/mL, CBD MIC taken as 256 μg/mL) of the same molecule?
Its FICI is 1.016.

And the FICI (CBD with Aztreonam at 1 μg/mL, CBD MIC taken as 256 μg/mL)?
The FICI was 1.031.

What about the FICI (CBD with Aztreonam at 2 μg/mL, CBD MIC taken as 256 μg/mL) of the same molecule?
The FICI was 1.0625.

What about the FICI (CBD with Aztreonam at 4 μg/mL, CBD MIC taken as 256 μg/mL) of the same molecule?
The FICI was 0.25.
